Laboratory results as given in PubChem BioAssay (NCI).
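Cells were grown in 96-well plates and exposed to each compound for 48 hours at five concentrations; endpoints were interpolated linearly between bracketing concentrations, or set to the highest concentration if not reached. TGI marks complete inhibition of growth.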

What was measured:
Test in all cases: NCI-60 cell line screen, 48 h
[1] = system: T-47D breast
[2] = system: SK-MEL-2 melanoma
[3] = system: NCI-H460 lung
[4] = system: SF-295 CNS
[5] = system: M14 melanoma
[6] = system: NCI/ADR-RES ovarian
[7] = system: OVCAR-8 ovarian
[8] = system: NCI-H23 lung
[9] = system: TK-10 renal
[10] = system: EKVX NSCLC
[11] = system: HL-60(TB) leukemia
[12] = system: PC-3 prostate
[13] = system: RPMI-8226 leukemia
[14] = system: K-562 leukemia
[15] = system: SF-268 CNS
[16] = system: SK-MEL-5 melanoma
[17] = system: ACHN renal
[18] = system: DU-145 prostate
[19] = system: OVCAR-4 ovarian

Structure (SMILES): CCOC(=O)CC[C@H](NC(=O)c1ccc(CNc2nc3cc(C(F)(F)F)ccc3nc2C(=O)OCC)cc1)C(=O)OCC
- TGI [1]: 60.8 µM
- TGI [2]: > 94.1 µM
- TGI [3]: 77.7 µM
- TGI [4]: 24.7 µM
- TGI [5]: > 66.2 µM
- TGI [6]: > 100 µM
- TGI [7]: > 100 µM
- TGI [8]: > 100 µM
- TGI [9]: 38.5 µM
- TGI [10]: 42.7 µM
- TGI [11]: > 100 µM
- TGI [12]: > 89.3 µM
- TGI [13]: > 100 µM
- TGI [14]: > 100 µM
- TGI [15]: 34.4 µM
- TGI [16]: > 66.6 µM
- TGI [17]: > 93.2 µM
- TGI [18]: > 100 µM

Structure (SMILES): CCC(C#N)NCc1ccc(CNC(C#N)CC)cc1 (configuration not stated)
- TGI [1]: > 100 µM
- TGI [2]: > 100 µM
- TGI [3]: > 100 µM
- TGI [4]: > 100 µM
- TGI [5]: > 100 µM
- TGI [6]: > 100 µM
- TGI [7]: > 100 µM
- TGI [8]: > 100 µM
- TGI [9]: > 100 µM
- TGI [10]: > 100 µM
- TGI [11]: > 100 µM
- TGI [12]: > 100 µM
- TGI [19]: > 100 µM
- TGI [14]: > 100 µM
- TGI [15]: > 100 µM
- TGI [16]: > 100 µM
- TGI [17]: > 100 µM
- TGI [18]: > 100 µM

Structure (SMILES): Cc1nc2ccc(F)cc2c2c1CCN2c1ccccc1
- TGI [1]: 85.8 µM
- TGI [3]: 36.1 µM
- TGI [4]: 34.4 µM
- TGI [6]: 68 µM
- TGI [7]: 44.6 µM
- TGI [8]: 52.9 µM
- TGI [9]: 71.5 µM
- TGI [10]: 94.9 µM
- TGI [11]: 24.6 µM
- TGI [12]: 86.2 µM
- TGI [13]: 37.1 µM
- TGI [19]: > 100 µM
- TGI [14]: 33.4 µM
- TGI [15]: > 100 µM
- TGI [16]: 26.8 µM
- TGI [17]: 67 µM
- TGI [18]: > 100 µM

Structure (SMILES): O=c1oc2cc(O)ccc2c(O)c1C(c1ccc2ccccc2c1)c1c(O)c2ccc(O)cc2oc1=O
- TGI [1]: > 100 µM
- TGI [2]: > 100 µM
- TGI [3]: > 100 µM
- TGI [4]: > 100 µM
- TGI [5]: > 100 µM
- TGI [6]: > 100 µM
- TGI [7]: > 100 µM
- TGI [8]: > 100 µM
- TGI [9]: > 100 µM
- TGI [10]: > 100 µM
- TGI [11]: 69.2 µM
- TGI [12]: > 100 µM
- TGI [13]: 85.2 µM
- TGI [14]: > 100 µM
- TGI [15]: 33.5 µM
- TGI [16]: > 100 µM
- TGI [18]: > 100 µM

Structure (SMILES): Nc1c(C(=O)c2ccc(Cl)cc2)[nH]c(Nc2ccc(Cl)cc2)c1C(=S)Nc1ccccc1
- TGI [1]: > 100 µM
- TGI [2]: 25.8 µM
- TGI [3]: 20.8 µM
- TGI [4]: 5.87 µM
- TGI [5]: 34.1 µM
- TGI [6]: 13.3 µM
- TGI [7]: 11 µM
- TGI [8]: 11.9 µM
- TGI [9]: 16.5 µM
- TGI [10]: 19.5 µM
- TGI [11]: > 100 µM
- TGI [12]: 41.2 µM
- TGI [13]: 56.3 µM
- TGI [19]: 5.14 µM
- TGI [14]: 17.8 µM
- TGI [15]: 17.8 µM
- TGI [17]: 5.08 µM
- TGI [18]: 24.1 µM

Structure (SMILES): COc1cccc([C@@H]2C/C(=N\NC(=O)C(=O)N[C@@H](C)c3ccccc3)c3cc4c(cc3N2)OCO4)c1
- TGI [1]: > 100 µM
- TGI [2]: > 100 µM
- TGI [4]: > 100 µM
- TGI [5]: > 100 µM
- TGI [6]: > 100 µM
- TGI [9]: > 100 µM
- TGI [10]: > 100 µM
- TGI [12]: > 100 µM
- TGI [13]: > 100 µM
- TGI [19]: > 100 µM
- TGI [14]: > 100 µM
- TGI [15]: > 100 µM
- TGI [16]: 65.3 µM
- TGI [17]: > 100 µM
- TGI [18]: > 100 µM

Structure (SMILES): COC1CC(=O)C2C(=O)N(c3ccccc3)C(=O)C23C(C(=O)c2ccccc2)=C(C)NC13O (configuration not stated)
- TGI [1]: 14.1 µM
- TGI [2]: 33.6 µM
- TGI [3]: 45.4 µM
- TGI [4]: > 100 µM
- TGI [5]: 35.5 µM
- TGI [6]: 50.9 µM
- TGI [7]: > 100 µM
- TGI [8]: 46.3 µM
- TGI [9]: 20.2 µM
- TGI [10]: 59.9 µM
- TGI [12]: 34.5 µM
- TGI [13]: 21.3 µM
- TGI [19]: 16.6 µM
- TGI [14]: 0.21 µM
- TGI [15]: 22.6 µM
- TGI [16]: 37.4 µM
- TGI [17]: 37.5 µM
- TGI [18]: 27.8 µM

Structure (SMILES): O=C1CC2(CCN(CC3COc4ccccc4O3)CC2)C(=O)N1N1CCCCCC1 (configuration not stated)
- TGI [1]: > 100 µM
- TGI [2]: > 100 µM
- TGI [4]: > 100 µM
- TGI [5]: > 100 µM
- TGI [6]: > 100 µM
- TGI [7]: > 100 µM
- TGI [8]: > 100 µM
- TGI [9]: > 100 µM
- TGI [10]: > 100 µM
- TGI [11]: > 100 µM
- TGI [12]: > 100 µM
- TGI [13]: > 100 µM
- TGI [19]: > 100 µM
- TGI [14]: > 100 µM
- TGI [15]: > 100 µM
- TGI [16]: > 100 µM
- TGI [17]: > 100 µM
- TGI [18]: > 100 µM

Structure (SMILES): CN(C)CCn1c2c(c3ccccc31)CCc1ccccc1-2
- TGI [1]: 54.8 µM
- TGI [2]: 28.6 µM
- TGI [3]: 27.5 µM
- TGI [4]: 30.6 µM
- TGI [5]: 26.3 µM
- TGI [6]: 29.9 µM
- TGI [7]: 29.5 µM
- TGI [8]: 31.4 µM
- TGI [9]: 30.5 µM
- TGI [10]: 32.4 µM
- TGI [12]: 23.5 µM
- TGI [13]: 28.3 µM
- TGI [19]: 28.3 µM
- TGI [15]: 32.3 µM
- TGI [16]: 21.1 µM
- TGI [17]: 29.9 µM
- TGI [18]: 29.8 µM

Structure (SMILES): Clc1ccc(C2ON=C(c3ccccc3)N2C23CC4CC(CC(C4)C2)C3)cc1Cl (configuration not stated)
- TGI [1]: > 10 µM
- TGI [2]: > 10 µM
- TGI [3]: > 10 µM
- TGI [4]: > 10 µM
- TGI [5]: > 10 µM
- TGI [6]: > 10 µM
- TGI [7]: > 10 µM
- TGI [8]: > 10 µM
- TGI [9]: > 10 µM
- TGI [10]: > 10 µM
- TGI [12]: > 10 µM
- TGI [13]: > 10 µM
- TGI [19]: > 10 µM
- TGI [14]: > 10 µM
- TGI [15]: > 10 µM
- TGI [16]: > 10 µM
- TGI [17]: > 10 µM
- TGI [18]: > 10 µM

Structure (SMILES): CC[C@]1(Cc2ccc(OC)c(OC)c2)C=[N+]([O-])O[C@H](OC2CCCCC2c2ccccc2)[C@@H]1OC(C)=O (some centres not stated)
- TGI [1]: > 100 µM
- TGI [2]: > 100 µM
- TGI [3]: > 100 µM
- TGI [4]: > 100 µM
- TGI [5]: > 100 µM
- TGI [6]: > 100 µM
- TGI [7]: > 100 µM
- TGI [8]: > 100 µM
- TGI [9]: > 100 µM
- TGI [10]: > 100 µM
- TGI [11]: 40.9 µM
- TGI [12]: > 100 µM
- TGI [13]: 69.7 µM
- TGI [19]: > 100 µM
- TGI [14]: > 100 µM
- TGI [16]: > 100 µM
- TGI [17]: > 100 µM
- TGI [18]: > 100 µM

Structure (SMILES): CCCCCCCCCCCCCCCCOP(=O)(O)OP(=O)(O)OCC1OC(n2cnc3c(N)ncnc32)C(O)C1O (configuration not stated)
- TGI [1]: > 100 µM
- TGI [2]: > 100 µM
- TGI [3]: > 100 µM
- TGI [5]: > 100 µM
- TGI [6]: > 100 µM
- TGI [7]: > 100 µM
- TGI [8]: > 100 µM
- TGI [9]: > 100 µM
- TGI [10]: > 100 µM
- TGI [11]: > 100 µM
- TGI [12]: > 100 µM
- TGI [19]: > 100 µM
- TGI [14]: > 100 µM
- TGI [15]: > 100 µM
- TGI [16]: > 100 µM
- TGI [17]: > 100 µM
- TGI [18]: > 100 µM

Structure (SMILES): Cn1c(=O)c2c(nc(N3CCOCC3)n2CCCNCC(O)c2ccc(O)c(O)c2)n(C)c1=O (configuration not stated)
- TGI [1]: > 100 µM
- TGI [2]: > 100 µM
- TGI [3]: > 100 µM
- TGI [4]: > 100 µM
- TGI [5]: > 100 µM
- TGI [6]: > 100 µM
- TGI [7]: > 100 µM
- TGI [8]: > 100 µM
- TGI [9]: > 100 µM
- TGI [10]: > 100 µM
- TGI [12]: > 100 µM
- TGI [13]: > 100 µM
- TGI [19]: > 100 µM
- TGI [14]: > 100 µM
- TGI [15]: > 100 µM
- TGI [16]: > 100 µM
- TGI [17]: > 100 µM
- TGI [18]: > 100 µM
